# pIC50: −log10 of the molar value. Where a name gives a salt, the structure may show the parent alone. Read-outs that look alike come from different tables or passages of the source.
# Legend:
# [1] = target: T1, α7-subtype of nicotinic receptors (Rattus norvegicus, UniProt Q05941); assay: In vitro inhibition of 3H-α-bungarotoxine binding in rat brain
# T1 construct: Cerebral cortices from male Wistar rats (150-250 g) are homogenised; from tissue; host or cells: rat cerebral cortex membrane homogenate
# serotonin transporter = target: T2, serotonin transporter (Rattus norvegicus, UniProt P31652); assay: In vitro inhibition of 3H-5-hydroxytryptamine uptake in cortical synaptosomes; format: biochemical; settings: 1 nM 3H-5-HT, 30 minutes at 37° C.
# T2 construct: Cerebral cortices from male Wistar rats (150-200 g) are homogenized; from tissue; host or cells: rat cerebral cortex synaptosomes (P2 pellet)
# Description: In vitro Inhibition of ^3H-5-Hydroxytryptamine Uptake in Cortical Synaptosomes
# Serotonin transporters/uptake sites on nerve terminals presumably function to terminate neuronal signaling by removing serotonin from the synaptic cleft. The activity of the serotonin transporter integral protein can be measured in vitro by synaptosomal uptake of ^3H-5-hydroxytryptamine (5-HT, serotonin).
# Preparations are performed at 0-4° C. Cerebral cortices from male Wistar rats (150-200 g) are homogenized for 5-10 seconds in 100 volumes of ice-cold 0.32 M sucrose containing 1 mM pargyline, using a motor driven teflon pestle in a glass homogenizing vessel. Monoamine oxidase activity is inhibited in the presence of pargyline.
# The homogenate is subjected to centrifugation at 1000×g for 10 minutes. The resulting supernatant is then centrifuged at 27,000×g for 50 minutes and the supernatant is discarded. The pellet (P2) is re-suspended in oxygenated (equilibrated with an atmosphere of 96% O2: 4% CO2 for at least 30 minutes) Krebs-Ringer incubation buffer (1000 ml per g of original tissue) at pH 7.2 containing 122 mM NaCl, 0.16 mM EDTA, 4.8 mM KCl, 12.7 mM Na2HPO4, 3.0 mM NaH2PO4, 1.2 mM MgSO4, 1 mM CaCl2, 10 mM glucose and 1 mM ascorbic acid.
# Aliquots of 4.0 ml tissue suspension are added to 100 μl, of test solution and 100 μl of ^3H-5-HT (1 nM, final concentration), mixed and incubated for 30 minutes at 37° C. Non-specific uptake is determined using Citalopram (1 μM, final concentration, available from Lundbeck, Denmark).
# After incubation, the samples are poured directly onto Whatman GF/C glass fibre filters under suction. The filters are washed three times with 5 ml of ice-cold 0.9% (w/v) NaCl solution.
# The amount of radioactivity on the filters is determined by conventional liquid scintillation counting. Specific uptake is calculated as the difference between total uptake and non-specific uptake.
# 25-75% inhibition of specific binding must be obtained, before calculation of an IC50.
# The test value is given as IC50 (the concentration (μM) of the test substance which inhibits the specific binding of ^3H-5-HT by 50%).
# [2] = rat cerebral cortex homogenate, 2 nM 3H-α-bungarotoxine, 2 hours at 37° C., read-out: Inhibition of 3H-α-Bungarotoxine Binding IC50
# T1 sequence (Q05941 23-502): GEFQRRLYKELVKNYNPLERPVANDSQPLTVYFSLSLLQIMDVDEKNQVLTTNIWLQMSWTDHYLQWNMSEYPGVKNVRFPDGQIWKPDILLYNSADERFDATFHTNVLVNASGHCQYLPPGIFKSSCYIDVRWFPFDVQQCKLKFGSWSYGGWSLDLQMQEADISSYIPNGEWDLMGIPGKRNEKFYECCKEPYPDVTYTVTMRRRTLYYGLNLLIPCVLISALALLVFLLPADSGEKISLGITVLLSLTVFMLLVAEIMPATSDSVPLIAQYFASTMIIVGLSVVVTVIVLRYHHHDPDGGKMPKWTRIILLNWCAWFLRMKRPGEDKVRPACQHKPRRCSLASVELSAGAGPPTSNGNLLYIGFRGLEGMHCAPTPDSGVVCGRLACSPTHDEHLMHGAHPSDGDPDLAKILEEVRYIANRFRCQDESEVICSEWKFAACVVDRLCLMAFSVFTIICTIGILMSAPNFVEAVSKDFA
# T2 sequence (P31652 whole entry): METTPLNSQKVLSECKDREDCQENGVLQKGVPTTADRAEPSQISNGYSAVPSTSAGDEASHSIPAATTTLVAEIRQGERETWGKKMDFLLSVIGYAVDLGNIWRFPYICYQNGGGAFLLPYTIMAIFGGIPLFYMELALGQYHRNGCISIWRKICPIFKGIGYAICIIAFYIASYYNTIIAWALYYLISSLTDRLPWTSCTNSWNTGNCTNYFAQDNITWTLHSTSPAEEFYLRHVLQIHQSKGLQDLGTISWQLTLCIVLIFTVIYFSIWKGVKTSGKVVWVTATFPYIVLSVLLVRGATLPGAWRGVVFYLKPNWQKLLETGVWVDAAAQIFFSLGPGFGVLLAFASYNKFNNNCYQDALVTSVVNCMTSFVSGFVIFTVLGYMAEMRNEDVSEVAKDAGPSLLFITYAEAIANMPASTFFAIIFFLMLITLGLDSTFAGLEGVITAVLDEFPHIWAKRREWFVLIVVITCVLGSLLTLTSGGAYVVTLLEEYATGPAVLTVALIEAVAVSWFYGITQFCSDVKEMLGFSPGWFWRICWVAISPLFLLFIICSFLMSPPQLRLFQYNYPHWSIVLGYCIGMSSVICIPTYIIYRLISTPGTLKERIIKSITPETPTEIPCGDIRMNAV
SMILES,pIC50 [1],pIC50 (serotonin transporter),"pIC50 [1, 2]"
"CN1C2C=C(C#Cc3ccccc3)CC1CC2 (racemic) [Compound 1, (±)-8-Methyl-3-phenyletynyl-8-azabicyclo[3.2.1]oct-2-ene fumaric acid salt]",6.49,6.96,
"C[N+]1(C)C2C=C(C#Cc3ccccc3)CC1CC2 (racemic) [Compound B1, (±)-8,8-Dimethyl-3-phenyletynyl-8-azabicyclo[3.2.1]oct-2-ene iodide salt]",,,8.70
"C[N+]12C=C(C#Cc3ccccc3)C(CC1)CC2 (racemic) [Compound B2, (±)-1-Methyl-3-phenyletynyl-quinuclidin-2-ene iodide salt]",,7.00,6.22
"C(#Cc1ccccc1)C1=CC2CCC(C1)N2 (racemic) [Compound C1, (±)-8-H-3-Phenyletynyl-8-azabicyclo[3.2.1]oct-2-ene fumaric acid salt]",,7.00,
"C(#Cc1ccccc1)C1=CN2CCC1CC2 [Compound A1, (±)-3-Phenyletynyl-quinuclidin-2-ene]",,6.38,6.74

# Reference: patent publication US7667040B2, “Azacyclic ethynyl derivatives” (Neurosearch A/S, priority 2002, dated 2010)
